Measured values taken from patent publication US20250221410A1, “SUBSTITUTED 2-C-AZINES AND SALTS THEREOF, AND USE THEREOF AS HERBICIDAL ACTIVE SUBSTANCES” (BAYER AKTIENGESELLSCHAFT, priority 2022, published 2025).

Key:
Type in all cases: in vivo
POAAN: Poa annua [1] = test: Post-emergence herbicidal efficacy at 1280 g/ha, POAAN; conditions: visual rating about 3 weeks after treatment vs untreated controls
Method in brief: (§1)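 Greenhouse pot test in sandy loam. Plants at the one-leaf stage, 2–3 weeks after sowing, were sprayed post-emergence with WP or EC formulations in water containing 0.5% additive, at 600 L/ha. Activity was scored visually about 3 weeks later against untreated controls (100% = dead, 0% = as control).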

[2] = tested on: ABUTH: Abutilon theophrasti; test: Post-emergence herbicidal efficacy at 1280 g/ha, ABUTH; conditions: rated visually after about 3 weeks vs untreated controls, 100% = plants have died, 0% = like control plants
Method in brief: as §1

STEME: Stellaria media [3] = test: Pre-emergence herbicide efficacy at 1280 g/ha, STEME; conditions: visual scoring vs untreated controls
Method in brief: (§2)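 Seeds sown in sandy loam in pots and covered; compounds as WP or EC applied to covering soil surface as aqueous suspension/emulsion with 0.5% additive at 600 L/ha water. Greenhouse growth ~3 weeks, then visual % efficacy vs untreated controls (100% = plants dead, 0% = like control).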

[4] = tested on: ALOMY: Alopecurus myosuroides; test: Post-emergence herbicidal efficacy at 1280 g/ha, ALOMY; conditions: rated visually after about 3 weeks vs untreated controls, 100% = plants have died, 0% = like control plants
Protocol: (§3) Seeds of mono- and dicotyledonous weed plants were placed in plastic pots in sandy loam soil (doubly sown with in each case one species of mono- or dicotyledonous weed plants per pot), covered with soil and cultivated in a greenhouse under controlled growth conditions. 2 to 3 weeks after sowing, the test plants were treated at the one-leaf stage. The compounds of the invention, formulated in the form of wettable powders (WP) or as emulsion concentrates (EC), were applied to the green parts of the plants as aqueous suspension or emulsion with addition of 0.5% additive at a water application rate equivalent to 600 litres per hectare. After the test plants had been kept in the greenhouse under optimum growth conditions for about 3 weeks, the activity of the preparations was rated visually in comparison to untreated controls. For example, 100% activity=the plants have died, 0% activity=like control plants. Tables A1 to A12 below show the effects of selected compounds of the general formula (I) according to Table 1 on various harmful plants and at an application rate corresponding to 1280 g/ha, which were obtained by the trial procedure specified above.

KCHSC: Kochia scoparia [5] = test: Pre-emergence herbicide efficacy at 1280 g/ha, KCHSC; conditions: visual scoring after about 3 weeks vs untreated controls
Method in brief: as §2

VIOTR: Viola tricolor [6] = test: Pre-emergence herbicide efficacy at 80 g/ha, VIOTR; conditions: scored visually after about 3 weeks
Excerpt: Seeds of monocotyledonous and dicotyledonous weed plants and crop plants were placed in plastic or organic planting pots and covered with soil. The compounds of the invention, formulated in the form of wettable powders (WP) or as emulsion concentrates (EC), were then applied to the surface of the covering soil as aqueous suspension or emulsion with addition of 0.5% additive at a water application rate equivalent to 600 l/ha. After the treatment, the pots were placed in a greenhouse and kept under good growth conditions for the test plants. After about 3 weeks, the efficacy of the preparations was scored visually in comparison with untreated controls as percentages. For example, 100% activity=the plants have died, 0% activity=like control plants. Tables D1 to D12 below show the effects of selected compounds of the general formula (I) according to Table 1 on various harmful plants and an application rate corresponding to 80 g/ha, which were obtained by the experimental procedure mentioned above.

VERPE: Veronica persica [7] = test: Post-emergence herbicidal efficacy at 1280 g/ha, VERPE; conditions: visual rating about 3 weeks after treatment vs untreated controls
Method in brief: as §1

[8] = tested on: DIGSA: Digitaria sanguinalis; test: Post-emergence herbicidal efficacy at 1280 g/ha, DIGSA; conditions: rated visually after about 3 weeks vs untreated controls, 100% = plants have died, 0% = like control plants
Method in brief: as §1

[9] = tested on: AMARE: Amaranthus retroflexus; test: Post-emergence herbicidal efficacy at 1280 g/ha, AMARE; conditions: rated visually after about 3 weeks vs untreated controls, 100% = plants have died, 0% = like control plants
Method in brief: as §1

LOLRI: Lolium rigidum [10] = test: Pre-emergence herbicide efficacy at 1280 g/ha, LOLRI; conditions: visual scoring after about 3 weeks vs untreated controls
Excerpt: (§4) Seeds of mono- and dicotyledonous weed plants were placed in plastic pots in sandy loam soil (doubly sown with one species each of mono- or dicotyledonous weed plants per pot) and covered with soil. The compounds of the invention, formulated in the form of wettable powders (WP) or as emulsion concentrates (EC), were then applied to the surface of the covering soil as aqueous suspension or emulsion with addition of 0.5% additive at a water application rate of 600 litres per hectare (converted). After the treatment, the pots were placed in a greenhouse and kept under good growth conditions for the test plants. After about 3 weeks, the efficacy of the preparations was scored visually in comparison with untreated controls as percentages. For example, 100% activity=the plants have died, 0% activity=like control plants. Tables C1 to C12 below show the effects of selected compounds of the general formula (I) according to Table 1 on various harmful plants and at an application rate corresponding to 1280 g/ha, which were obtained by the trial procedure specified above.

STEME: Stellaria media [11] = test: Post-emergence herbicidal efficacy at 1280 g/ha, STEME; conditions: visual rating about 3 weeks after treatment vs untreated controls
Method in brief: as §1

VIOTR: Viola tricolor [12] = test: Post-emergence herbicidal efficacy at 80 g/ha, VIOTR; conditions: visual rating about 3 weeks after treatment vs untreated controls
Protocol: (§5) Seeds of monocotyledonous and dicotyledonous weeds and crop plants were placed in sandy loam in plastic or organic planting pots, covered with soil and cultivated in a greenhouse under controlled growth conditions. 2 to 3 weeks after sowing, the test plants were treated at the one-leaf stage. The compounds of the invention, formulated in the form of wettable powders (WP) or as emulsion concentrates (EC), were then sprayed onto the green parts of the plants as aqueous suspension or emulsion with addition of 0.5% additive at a water application rate of 600 l/ha (converted). After the test plants had been kept in the greenhouse under optimum growth conditions for about 3 weeks, the activity of the preparations was rated visually in comparison to untreated controls. For example, 100% activity=the plants have died, 0% activity=like control plants. Tables B1 to B10 below show the effects of selected compounds of the general formula (I) according to Table 1 on various harmful plants and an application rate corresponding to 80 g/ha, which were obtained by the experimental procedure mentioned above.

POAAN: Poa annua [13] = test: Pre-emergence herbicide efficacy at 1280 g/ha, POAAN; conditions: visual scoring after about 3 weeks vs untreated controls
Method in brief: as §2

VERPE: Veronica persica [14] = test: Post-emergence herbicidal efficacy at 80 g/ha, VERPE; conditions: visual rating about 3 weeks after treatment vs untreated controls
Method in brief: (§6)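 Sow in sandy loam and grow in the greenhouse for 2 to 3 weeks. Spray the green parts at the one-leaf stage with a WP or EC suspension or emulsion plus 0.5% additive at 600 l/ha water. Keep plants about 3 weeks, then score damage visually against controls.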

[15] = tested on: ALOMY: Alopecurus myosuroides; test: Pre-emergence herbicide efficacy at 1280 g/ha, ALOMY; conditions: visual scoring after about 3 weeks vs untreated controls
Excerpt: as §4

[16] = tested on: DIGSA: Digitaria sanguinalis; test: Pre-emergence herbicide efficacy at 1280 g/ha, DIGSA; conditions: visual scoring after about 3 weeks vs untreated controls
Method in brief: as §2

[17] = tested on: AMARE: Amaranthus retroflexus; test: Post-emergence herbicidal efficacy at 80 g/ha, AMARE; conditions: visual rating about 3 weeks after treatment vs untreated controls
Method in brief: as §6

[18] = tested on: ABUTH: Abutilon theophrasti; test: Pre-emergence herbicide efficacy at 1280 g/ha, ABUTH; conditions: visual scoring after about 3 weeks vs untreated controls
Method in brief: as §2

KCHSC: Kochia scoparia [19] = test: Post-emergence herbicidal efficacy at 1280 g/ha, KCHSC; conditions: visual rating about 3 weeks after treatment vs untreated controls
Method in brief: as §1

[20] = tested on: AMARE: Amaranthus retroflexus; test: Pre-emergence herbicide efficacy at 1280 g/ha, AMARE; conditions: visual scoring after about 3 weeks vs untreated controls
Method in brief: as §2

SETVI: Setaria viridis [21] = test: Post-emergence herbicidal efficacy at 1280 g/ha, SETVI; conditions: visual rating about 3 weeks after treatment vs untreated controls
Method in brief: as §1

SETVI: Setaria viridis [22] = test: Pre-emergence herbicide efficacy at 1280 g/ha, SETVI; conditions: visual scoring vs untreated controls
Method in brief: as §2

VERPE: Veronica persica [23] = test: Pre-emergence herbicide efficacy at 1280 g/ha, VERPE; conditions: visual scoring vs untreated controls
Method in brief: as §2

[24] = tested on: ECHCG: Echinochloa crus-galli; test: Pre-emergence herbicide efficacy at 1280 g/ha, ECHCG; conditions: visual scoring after about 3 weeks vs untreated controls
Method in brief: as §2

[25] = tested on: ECHCG: Echinochloa crus-galli; test: Post-emergence herbicidal efficacy at 1280 g/ha, ECHCG; conditions: rated visually after about 3 weeks vs untreated controls, 100% = plants have died, 0% = like control plants
Method in brief: as §1

[26] = tested on: MATIN: Matricaria inodora; test: Pre-emergence herbicide efficacy at 1280 g/ha, MATIN; conditions: visual scoring after about 3 weeks vs untreated controls
Method in brief: as §2

KCHSC: Kochia scoparia [27] = test: Post-emergence herbicidal efficacy at 80 g/ha, KCHSC; conditions: visual rating about 3 weeks after treatment vs untreated controls
Protocol: as §5

LOLRI: Lolium rigidum [28] = test: Post-emergence herbicidal efficacy at 1280 g/ha, LOLRI; conditions: visual rating about 3 weeks after treatment vs untreated controls
Protocol: as §3

Fc1ccc(Oc2c(Cc3ncc(Cl)cn3)cccc2C(F)(F)F)cc1 [Example 1-40]
Post-emergence efficacy against POAAN (POAAN: Poa annua [1]): 90% | Post-emergence efficacy at 1280 g/ha against ABUTH in % [2]: 100% | Pre-emergence efficacy against STEME in % (STEME: Stellaria media [3]): 100% | Post-emergence efficacy at 1280 g/ha against ALOMY in % [4]: 100% | Pre-emergence efficacy against KCHSC (KCHSC: Kochia scoparia [5]): 90% | Pre-emergence efficacy against VIOTR in % (VIOTR: Viola tricolor [6]): 100% | Post-emergence efficacy against VERPE (VERPE: Veronica persica [7]): 100% | Post-emergence efficacy at 1280 g/ha against DIGSA in % [8]: 90% | Post-emergence efficacy at 1280 g/ha against AMARE in % [9]: 100% | Pre-emergence efficacy against LOLRI (LOLRI: Lolium rigidum [10]): 100% | Post-emergence efficacy against STEME (STEME: Stellaria media [11]): 100% | Post-emergence efficacy against VIOTR (VIOTR: Viola tricolor [12]): 100% | Pre-emergence efficacy against POAAN (POAAN: Poa annua [13]): 100% | Post-emergence efficacy against VERPE (VERPE: Veronica persica [14]): 90% | Pre-emergence efficacy against ALOMY [15]: 100% | Pre-emergence efficacy against DIGSA [16]: 100% | Post-emergence efficacy against AMARE [17]: 90% | Pre-emergence efficacy against ABUTH [18]: 100% | Post-emergence efficacy against KCHSC (KCHSC: Kochia scoparia [19]): 100% | Pre-emergence efficacy against AMARE [20]: 100% | Post-emergence efficacy against SETVI (SETVI: Setaria viridis [21]): 90% | Pre-emergence efficacy against SETVI in % (SETVI: Setaria viridis [22]): 100% | Pre-emergence efficacy against VERPE in % (VERPE: Veronica persica [23]): 100% | Pre-emergence efficacy against ECHCG [24]: 100% | Post-emergence efficacy at 1280 g/ha against ECHCG in % [25]: 100% | Pre-emergence efficacy against MATIN [26]: 90% | Post-emergence efficacy against KCHSC (KCHSC: Kochia scoparia [27]): 90% | Post-emergence efficacy against LOLRI (LOLRI: Lolium rigidum [28]): 100%
